Laboratory results from ChEMBL document CHEMBL1201862, “PubChem BioAssay data set” (2004).
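Where inhibition never reached the appropriate level, the endpoint shown equals the highest concentration tested. Otherwise, values were interpolated linearly from a five-concentration, 48-hour dose response in 96-well plates. The concentration for 50% growth inhibition is given as GI50.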 Activity calls are given as the source filed them. Rule as the data show it: active = GI50 up to about 1.1 µM and inactive = higher.

Assays:
Experiment in all cases: DTP human tumour cell line panel, 48 h
HCT-15 = tested on: HCT-15
KM12 = tested on: KM12
A498 = tested on: A498
SF-539 = tested on: SF-539
SF-295 = tested on: SF-295
HL-60 = tested on: HL-60
SK-OV-3 = tested on: SK-OV-3
OVCAR-5 = tested on: OVCAR-5
IGROV-1 = tested on: IGROV-1
SNB-75 = tested on: SNB-75
A549 = tested on: A549
CCRF-CEM = tested on: CCRF-CEM
SK-MEL-2 = tested on: SK-MEL-2
OVCAR-3 = tested on: OVCAR-3
HCT-116 = tested on: HCT-116
UACC-62 = tested on: UACC-62
SK-MEL-28 = tested on: SK-MEL-28
NCI-H23 = tested on: NCI-H23
U-251 = tested on: U-251
CAKI-1 = tested on: CAKI-1

Compound | GI50 (HCT-15) | GI50 (KM12) | GI50 (A498) | GI50 (SF-539) | GI50 (SF-295) | GI50 (HL-60) | GI50 (SK-OV-3) | GI50 (OVCAR-5) | GI50 (IGROV-1) | GI50 (SNB-75) | GI50 (A549) | GI50 (CCRF-CEM) | GI50 (SK-MEL-2) | GI50 (OVCAR-3) | GI50 (HCT-116) | GI50 (UACC-62) | GI50 (SK-MEL-28) | GI50 (NCI-H23) | GI50 (U-251) | GI50 (CAKI-1)
Nc1nc(Cl)cc(NCCCCO)n1 | > 100 µM | > 100 µM (inactive) | > 100 µM (inactive) | > 100 µM (inactive) | > 100 µM (inactive) | > 100 µM (inactive) | > 100 µM (inactive) | > 100 µM (inactive) | > 100 µM (inactive) | 65.3 µM (inactive) | > 100 µM (inactive) | > 100 µM (inactive) | > 100 µM (inactive) | > 10 µM (inactive) | > 100 µM (inactive) | > 100 µM (inactive) | > 100 µM (inactive) | > 100 µM (inactive) | > 100 µM (inactive) | –
O=[N+]([O-])/C(C(Cl)=C(Cl)Cl)=C1\Nc2ccccc2O1 | > 100 µM | 90.6 µM (inactive) | > 100 µM (inactive) | 19.9 µM (inactive) | > 100 µM (inactive) | 28.8 µM (inactive) | > 100 µM (inactive) | > 100 µM (inactive) | 43.7 µM (inactive) | 15.7 µM (inactive) | 37.7 µM (inactive) | 19.5 µM (inactive) | > 100 µM (inactive) | 23.4 µM (inactive) | 51.6 µM (inactive) | 9.16 µM (inactive) | > 100 µM (inactive) | 67.3 µM (inactive) | > 100 µM (inactive) | > 100 µM (inactive)
Nc1nc(SCCc2ccccc2)nc2nc3c(c(-c4ccccc4)c12)CCCC3 | > 100 µM | > 100 µM (inactive) | – | 0.706 µM (active) | > 100 µM (inactive) | > 100 µM (inactive) | 99.1 µM (inactive) | – | > 100 µM (inactive) | 34.9 µM (inactive) | > 100 µM (inactive) | > 100 µM (inactive) | – | > 100 µM (inactive) | > 10 µM (inactive) | > 100 µM (inactive) | > 100 µM (inactive) | > 100 µM (inactive) | > 100 µM (inactive) | > 100 µM (inactive)
COn1oc(=O)c2ccccc21 | > 100 µM | > 100 µM (inactive) | > 100 µM (inactive) | > 100 µM (inactive) | > 100 µM (inactive) | > 100 µM (inactive) | > 100 µM (inactive) | > 100 µM (inactive) | > 100 µM (inactive) | > 100 µM (inactive) | > 100 µM (inactive) | > 100 µM (inactive) | > 100 µM (inactive) | > 100 µM (inactive) | > 100 µM (inactive) | > 100 µM (inactive) | > 100 µM (inactive) | > 100 µM (inactive) | > 100 µM (inactive) | > 100 µM (inactive)
CCOC(=O)CC1(c2cccc3ccccc23)OC(=O)c2ccccc21 (configuration not stated) | 35.5 µM | 40.5 µM (inactive) | 23.6 µM (inactive) | – | 34.4 µM (inactive) | 22.1 µM (inactive) | > 100 µM (inactive) | > 100 µM (inactive) | > 100 µM (inactive) | 14 µM (inactive) | 41 µM (inactive) | 43.1 µM (inactive) | 32.1 µM (inactive) | 33.6 µM (inactive) | – | 57.7 µM (inactive) | 39.9 µM (inactive) | 20.3 µM (inactive) | 68.4 µM (inactive) | 57.7 µM (inactive)
CC(C)(C)c1ccc2c(c1)OP1(Oc3cccc4cccnc34)(O2)Oc2ccc(C(C)(C)C)cc2O1 | 2.86 µM | 6.73 µM (inactive) | 9.31 µM (inactive) | 10.4 µM (inactive) | 4.19 µM (inactive) | 1.76 µM (inactive) | 48.2 µM (inactive) | 4.17 µM (inactive) | 3.88 µM (inactive) | 15.7 µM (inactive) | 5.58 µM (inactive) | 0.701 µM (active) | 7.85 µM (inactive) | 1.79 µM (inactive) | 3.13 µM (inactive) | 3.26 µM (inactive) | 15.7 µM (inactive) | 3.05 µM (inactive) | 7 µM (inactive) | 12.2 µM (inactive)
O=C(NC(Cc1ccc(I)cc1)C(=O)O)c1cccc(Br)c1 (configuration not stated) | > 100 µM | 55.1 µM (inactive) | > 100 µM (inactive) | 84.1 µM (inactive) | > 100 µM (inactive) | > 100 µM (inactive) | > 100 µM (inactive) | > 100 µM (inactive) | > 100 µM (inactive) | 39.2 µM (inactive) | > 100 µM (inactive) | 69.2 µM (inactive) | > 80.7 µM (inactive) | 54.6 µM (inactive) | > 100 µM (inactive) | 50.6 µM (inactive) | 49.8 µM (inactive) | > 100 µM (inactive) | 78.3 µM (inactive) | > 100 µM (inactive)
CON(C)c1nc(N)c(C#N)c(C#N)c1C#N | > 10 µM | > 10 µM (inactive) | > 10 µM (inactive) | > 10 µM (inactive) | > 10 µM (inactive) | 4.16 µM (inactive) | > 10 µM (inactive) | > 10 µM (inactive) | > 10 µM (inactive) | > 10 µM (inactive) | > 10 µM (inactive) | 4.02 µM (inactive) | > 10 µM (inactive) | 2.28 µM (inactive) | > 10 µM (inactive) | > 10 µM (inactive) | > 10 µM (inactive) | > 10 µM (inactive) | > 10 µM (inactive) | > 10 µM (inactive)
CSc1nc(NC2OCC(O)C(O)C2O)c(N)c(=O)n1C (configuration not stated) | > 100 µM | > 100 µM (inactive) | > 100 µM (inactive) | 75.2 µM (inactive) | > 100 µM (inactive) | > 100 µM (inactive) | > 100 µM (inactive) | > 100 µM (inactive) | > 100 µM (inactive) | 51.6 µM (inactive) | > 100 µM (inactive) | > 100 µM (inactive) | > 100 µM (inactive) | > 100 µM (inactive) | > 100 µM (inactive) | > 100 µM (inactive) | > 100 µM (inactive) | > 100 µM (inactive) | > 100 µM (inactive) | –
CCC1NC(/N=N/c2ccc([N+](=O)[O-])cc2)(P(=O)(OC(C)C)OC(C)C)OC1=O (configuration not stated) | – | > 100 µM (inactive) | > 100 µM (inactive) | > 100 µM (inactive) | > 100 µM (inactive) | > 100 µM (inactive) | > 100 µM (inactive) | > 100 µM (inactive) | > 100 µM (inactive) | 23.6 µM (inactive) | > 100 µM (inactive) | > 100 µM (inactive) | > 100 µM (inactive) | > 100 µM (inactive) | > 100 µM (inactive) | 97.1 µM (inactive) | > 100 µM (inactive) | > 100 µM (inactive) | > 100 µM (inactive) | > 100 µM (inactive)
C/C(=C\c1ccccc1)n1c(=O)cc(C)n1C | – | > 100 µM (inactive) | – | > 100 µM (inactive) | > 100 µM (inactive) | – | > 100 µM (inactive) | > 100 µM (inactive) | > 100 µM (inactive) | > 100 µM (inactive) | > 100 µM (inactive) | > 100 µM (inactive) | > 100 µM (inactive) | > 100 µM (inactive) | > 100 µM (inactive) | > 100 µM (inactive) | > 100 µM (inactive) | > 100 µM (inactive) | > 100 µM (inactive) | > 100 µM (inactive)
O=P(Nc1ccc(Cl)cc1)(Oc1ccccc1)N(CCCl)CCCl (configuration not stated) | > 100 µM | > 100 µM (inactive) | > 100 µM (inactive) | > 100 µM (inactive) | > 100 µM (inactive) | – | > 100 µM (inactive) | > 100 µM (inactive) | > 100 µM (inactive) | 33.7 µM (inactive) | > 100 µM (inactive) | > 100 µM (inactive) | 35.5 µM (inactive) | > 100 µM (inactive) | > 100 µM (inactive) | > 100 µM (inactive) | > 100 µM (inactive) | > 100 µM (inactive) | > 100 µM (inactive) | > 100 µM (inactive)
O=S(O)CCCCCSSc1ccccc1 | – | 53.3 µM (inactive) | 48.5 µM (inactive) | 22.8 µM (inactive) | – | 14.1 µM (inactive) | > 100 µM (inactive) | > 100 µM (inactive) | – | 37.3 µM (inactive) | – | 4.5 µM (inactive) | 18.2 µM (inactive) | 43.7 µM (inactive) | 24.3 µM (inactive) | 28.3 µM (inactive) | 61.1 µM (inactive) | 52.5 µM (inactive) | 21.3 µM (inactive) | –
O=C1C[C@H](c2ccccc2)C2(C(=O)c3ccccc3C2=O)[C@H](c2ccccc2)C1 | > 100 µM | > 100 µM (inactive) | > 100 µM (inactive) | – | > 100 µM (inactive) | > 100 µM (inactive) | 19.5 µM (inactive) | > 100 µM (inactive) | 9.08 µM (inactive) | 27 µM (inactive) | – | > 100 µM (inactive) | 16.6 µM (inactive) | > 100 µM (inactive) | 46.5 µM (inactive) | 79.1 µM (inactive) | > 100 µM (inactive) | > 100 µM (inactive) | > 100 µM (inactive) | > 100 µM (inactive)
Oc1cc(-c2ccc(Cl)cc2)nc2ncccc12 | 27.4 µM | 14.9 µM (inactive) | 68.1 µM (inactive) | 45.5 µM (inactive) | – | – | 46 µM (inactive) | > 100 µM (inactive) | 44.3 µM (inactive) | 24.5 µM (inactive) | 54.2 µM (inactive) | 41.7 µM (inactive) | 31 µM (inactive) | – | – | 28.9 µM (inactive) | 57.1 µM (inactive) | 86.5 µM (inactive) | 36.6 µM (inactive) | 61.9 µM (inactive)
